In US20150291598A1 (NOVARTIS AG, priority 2012, published 2015):

tested on: P. falciparum (NF54 or 3D7 strain); assay: Assay for P. falciparum proliferation in infected human blood cells (SYBR Green); type: cell-based, Plasmodium falciparum; conditions: Plasmodium falciparum, 3D7|NF54, Erythrocyte, in Homo sapiens, 72 h, NF54 or 3D7 infected human erythrocytes, 72 hours; read-out: EC50 (nM), inhibitory efficacy in delaying P. falciparum proliferation in infected human blood cells
Procedure, shortened: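 NF54 or 3D7 parasites in O+ human erythrocytes at 2.5% hematocrit and 0.3% parasitemia final, exposed to compounds 72 h at 37 °C under 93% N2/4% CO2/3% O2.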

EC50 [nM]	Structure (SMILES)
1090	Cc1ccnc(N(C)C(=O)c2cn3c(-c4ccc(C(F)(F)F)cc4)cnc3cn2)c1 [Compound 328]
4080	COc1ccc(-c2cnc3cnc(CN(C)c4ccc(C)cn4)cn23)cn1 [Compound 338]

same assay, conditions: Plasmodium falciparum, Erythrocyte, 72 h, NF54 or 3D7 infected human erythrocytes, 72 hours; read-out: EC50 (nM), inhibitory efficacy in delaying P. falciparum proliferation in infected human blood cells

Structure (SMILES)	EC50 [nM]
CN(C(=O)N1CCC(F)CC1)c1cn2c(-c3ccc(C(F)(F)F)cc3)cnc2cn1 [Compound 322, 4-fluoro-N-methyl-N-{3-[4-(trifluoromethyl)phenyl]imidazo[1,2-a]pyrazin-6-yl}piperidine-1-carboxamide]	2710
CN(C(=O)c1cn2c(-c3ccc(NC(C)(C)CN)cc3)cnc2cn1)c1ccc(C#N)cc1 [Compound 324, 3-{4-[(1-amino-2-methylpropan-2-yl)amino]phenyl}-N-(4-cyanophenyl)-N-methylimidazo[1,2-a]pyrazine-6-carboxamide]	1230
CN(C(=O)c1cn2c(-c3ccc4occc4c3)cnc2cn1)c1ccc(Cl)nc1 [Compound 325, 3-(1-benzofuran-5-yl)-N-(6-chloropyridin-3-yl)-N-methylimidazo[1,2-a]pyrazine-6-carboxamide]	4140
CN(C(=O)c1cn2c(-c3ccc(C(F)(F)F)cc3)cnc2cn1)c1cccnc1 [Compound 326, N-methyl-N-(pyridin-3-yl)-3-[4-(trifluoromethyl)phenyl]imidazo[1,2-a]pyrazine-6-carboxamide]	2090
CN(C(=O)c1cn2c(-c3ccc(C(F)(F)F)cc3)cnc2cn1)c1ccnc(C(F)(F)F)c1 [Compound 329, N-methyl-3-[4-(trifluoromethyl)phenyl]-N-[2-(trifluoromethyl)pyridin-4-yl]imidazo[1,2-a]pyrazine-6-carboxamide]	2760
CNC(=O)c1ccc(-c2cnc3cnc(C(=O)N(C)c4ccc(C#N)cc4)cn23)cn1 [Compound 331, 5-{6-[(4-cyanophenyl)(methyl)carbamoyl]imidazo[1,2-a]pyrazin-3-yl}-N-methylpyridine-2-carboxamide]	1740
CN(C(=O)c1cn2c(-c3ccc(C(F)(F)F)c(F)c3)cnc2cn1)c1ccc(Cl)nc1 [Compound 332, N-(6-chloropyridin-3-yl)-3-[3-fluoro-4-(trifluoromethyl)phenyl]-N-methylimidazo[1,2-a]pyrazine-6-carboxamide]	3410
COc1ccc(-c2cnc3cnc(C(=O)N(C)c4ccc(Cl)nc4)cn23)cn1 [Compound 336, N-(6-chloropyridin-3-yl)-3-(6-methoxypyridin-3-yl)-N-methylimidazo[1,2-a]pyrazine-6-carboxamide]	6930
CN(C(=O)c1cn2c(-c3ccc(C(F)(F)F)cc3)cnc2cn1)c1ccc(C(F)(F)F)cn1 [Compound 337, N-methyl-3-[4-(trifluoromethyl)phenyl]-N-[5-(trifluoromethyl)pyridin-2-yl]imidazo[1,2-a]pyrazine-6-carboxamide]	> 7160
CN(C(=O)c1cn2c(-c3ccc(N4CCOCC4)cc3)cnc2cn1)c1ccc(Cl)nc1 [Compound 340, N-(6-chloropyridin-3-yl)-N-methyl-3-[4-(morpholin-4-yl)phenyl]imidazo[1,2-a]pyrazine-6-carboxamide]	6850
CN(C(=O)c1cn2c(-c3ccc(C#N)cc3)c(C(F)(F)F)nc2cn1)c1ccc(C#N)cc1 [Compound 341, N,3-bis(4-cyanophenyl)-N-methyl-2-(trifluoromethyl)imidazo[1,2-a]pyrazine-6-carboxamide]	5790
CN(C(=O)c1cn2c(-c3ccc(C(F)(F)F)cc3)cnc2cn1)c1ccc(Cl)nc1Cl [Compound 342, N-(2,6-dichloropyridin-3-yl)-N-methyl-3-[4-(trifluoromethyl)phenyl]imidazo[1,2-a]pyrazine-6-carboxamide]	393
CN(C(=O)c1cn2c(-c3ccc(C(=O)NC4CC4)cc3)cnc2cn1)c1ccc(Cl)nc1 [Compound 343, N-(6-chloropyridin-3-yl)-3-[4-(cyclopropylcarbamoyl)phenyl]-N-methylimidazo[1,2-a]pyrazine-6-carboxamide]	6780
Cc1cccc(N(C)C(=O)c2cn3c(-c4ccc(C(F)(F)F)cc4)cnc3cn2)n1 [Compound 345, N-methyl-N-(6-methylpyridin-2-yl)-3-[4-(trifluoromethyl)phenyl]imidazo[1,2-a]pyrazine-6-carboxamide]	2300
CN(C(=O)c1cn2c(-c3ccc(C(F)(F)F)cc3)cnc2cn1)c1ccccc1OC(F)F [Compound 346, N-[2-(difluoromethoxy)phenyl]-N-methyl-3-[4-(trifluoromethyl)phenyl]imidazo[1,2-a]pyrazine-6-carboxamide]	242
CN(c1cn2c(-c3ccc(C(F)(F)F)cc3)cnc2cn1)S(=O)(=O)c1ccc(C#N)cc1 [Compound 347, 4-cyano-N-methyl-N-{3-[4-(trifluoromethyl)phenyl]imidazo[1,2-a]pyrazin-6-yl}benzene-1-sulfonamide]	3260
CN(C(=O)c1cn2c(-c3ccc4[nH]ncc4c3)cnc2cn1)c1ccc(Cl)nc1 [Compound 349, N-(6-chloropyridin-3-yl)-3-(1H-indazol-5-yl)-N-methylimidazo[1,2-a]pyrazine-6-carboxamide]	4680

The next lines start with the values.

EC50 [nM]	Structure (SMILES)
3310	Cc1cnc(N(C)C(=O)c2cn3c(-c4ccc(C(F)(F)F)cc4)cnc3cn2)cn1 [Compound 327, N-methyl-N-(5-methylpyrazin-2-yl)-3-[4-(trifluoromethyl)phenyl]imidazo[1,2-a]pyrazine-6-carboxamide]
1960	CN(C(=O)c1cn2c(-c3ccc(-n4cccn4)cc3)cnc2cn1)c1ccc(Cl)nc1 [Compound 330, N-(6-chloropyridin-3-yl)-N-methyl-3-[4-(1H-pyrazol-1-yl)phenyl]imidazo[1,2-a]pyrazine-6-carboxamide]
4130	COc1ncc(-c2cnc3cnc(C(=O)N(C)c4ccc(C#N)cc4)cn23)cn1 [Compound 333, N-(4-cyanophenyl)-3-(2-methoxypyrimidin-5-yl)-N-methylimidazo[1,2-a]pyrazine-6-carboxamide]
> 5190	CCc1ccnc(NC(=O)c2cn3c(-c4ccc(C(F)(F)F)cc4)cnc3cn2)c1 [Compound 334, N-(4-ethylpyridin-2-yl)-3-[4-(trifluoromethyl)phenyl]imidazo[1,2-a]pyrazine-6-carboxamide]
5340	COc1cncc(-c2cnc3cnc(C(=O)N(C)c4ccc(C#N)cc4)cn23)n1 [Compound 335, N-(4-cyanophenyl)-3-(6-methoxypyrazin-2-yl)-N-methylimidazo[1,2-a]pyrazine-6-carboxamide]
1260	Cc1noc(-c2ccc(-c3cnc4cnc(C(=O)N(C)c5ccc(C#N)cc5)cn34)cc2)n1 [Compound 339, N-(4-cyanophenyl)-N-methyl-3-[4-(3-methyl-1,2,4-oxadiazol-5-yl)phenyl]imidazo[1,2-a]pyrazine-6-carboxamide]
2990	CN(C)c1ncc(-c2cnc3cnc(C(=O)N(C)c4ccc(C#N)cc4)cn23)cn1 [Compound 344, N-(4-cyanophenyl)-3-[2-(dimethylamino)pyrimidin-5-yl]-N-methylimidazo[1,2-a]pyrazine-6-carboxamide]
4690	CN(C(=O)c1cn2c(-c3ccc(C(F)(F)F)cc3)cnc2cn1)c1cc(C(F)(F)F)ccn1 [Compound 348, N-methyl-3-[4-(trifluoromethyl)phenyl]-N-[4-(trifluoromethyl)pyridin-2-yl]imidazo[1,2-a]pyrazine-6-carboxamide]
